In patent publication US12285012B2, “Compositions comprising pyridine carboxylate herbicides with acetolactate synthase (ALS) inhibitor herbicides” (Corteva Agriscience LLC, priority 2018, dated 2025):
Where “and” joins values, the source holds several entries; their conditions need not be identical. Equal entries are not always repeated. Where two headings read alike, the source gives them in different places.

What was measured:
winter barley (HORVW) = assay: Greenhouse postemergence crop phytotoxicity; assay type: in vivo, Hordeum vulgare
Description: (§1) Seeds of the desired test plant species were planted in a 90:10% v/v (volume/volume) mixture of PRO-MIX® BX (Premier Tech Horticulture, Quakertown, PA, USA) and PROFILE® GREENS GRADE™ (Profile Products LLC, Buffalo Grove, IL, USA) planting mixture, which typically has a pH of 5.2 to 6.2 and an organic matter content of at least 50 percent, in plastic pots with a surface area of 103.2 square centimeters (cm^2). In some aspects, to ensure good germination and healthy plants, a fungicide treatment and/or other chemical or physical treatment was applied. The plants were grown for 7-36 days (d) in a greenhouse with an approximate 14-hour (h) photo-period which was maintained at about 23° C. during the day and 22° C. during the night. Nutrients and water were added on a regular basis and supplemental lighting was provided with overhead metal halide 1000-Watt lamps as necessary. The plants were employed for testing when they reached the second or third true leaf stage.
(§2) Emulsifiable concentrates of each of each pyridine carboxylate herbicide (Compound A or Compound B) were prepared at 100 grams acid equivalent per liter (g ae/L). The emulsifiable concentrates also included a safener, cloquintocet-mexyl, at 120 grams active ingredient per liter (g ai/L), unless otherwise noted below. An aliquot of each emulsifiable concentrate was placed in a 25 mL glass vial and diluted with an aqueous mixture of 1.25% (v/v) ACTIROB® B esterified rapeseed oil (Bayer Crop Science, Research Triangle Park, NC, USA) or MSO® Concentrate with LECI-TECH® methylated soybean oil (Loveland Products, Loveland, CO, USA) to obtain concentrated stock solutions at the highest application rate for each herbicide, based upon a 12 milliliter (mL) application volume at a rate of 187 liters per hectare (L/ha). The concentrated stock solutions were further diluted with an aqueous mixture of 1.25% v/v ACTIROB® B or MSO® Concentrate with LECI-TECH® to obtain stock solutions at reduced application rates for each herbicide. Spray solutions of the herbicide combinations (Compound A or Compound B plus ALS herbicide) were prepared by adding weighed amounts or aliquots of the ALS herbicides to the stock solutions of Compound A or Compound B to form 12-mL spray solutions in two- or three-way combinations. […]
(§3) The treated plants and control plants were placed in a greenhouse as described above and watered by sub-irrigation to prevent wash-off of the test compounds. After 20-22 d, the condition of the test plants as compared with that of the control plants was determined visually and scored on a scale of 0 to 100 percent where 0 corresponds to no injury and 100 corresponds to complete kill.

spring barley (HORVS) = assay type: in vivo, Hordeum vulgare
How it was run: (§4)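 Plants at the second or third true leaf stage, grown at about 23/22 °C day/night with a 14 h photoperiod, were sprayed postemergence. Emulsifiable concentrates held cloquintocet-mexyl safener at 120 g ai/L; rates are g ae/ha (pyridine carboxylate) or g ai/ha (ALS inhibitor). Injury was scored visually against solvent-blank controls at 20-22 d (0-100%).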

[1] = tested on: shepherd's purse (CAPBP, Capsella bursa-pastoris); assay: Greenhouse postemergence herbicidal effect; assay type: in vivo
How it was run: as §4

[2] = tested on: bird's-eye speedwell (VERPE, Veronica persica); assay: Greenhouse postemergence herbicidal effect; assay type: in vivo
How it was run: as §4

[3] = tested on: R-PAPRH = Papaver rhoeas (corn poppy), herbicide-resistant; assay: Greenhouse postemergence herbicidal effect; assay type: in vivo
How it was run: as §4

[4] = tested on: ivyleaf speedwell (VERHE, Veronica hederifolia); assay: Greenhouse postemergence herbicidal effect; assay type: in vivo
How it was run: as §4

[5] = tested on: false chamomile (MATIN, Matricaria inodora); assay: Greenhouse postemergence herbicidal effect; assay type: in vivo
How it was run: as §4

[6] = tested on: cornflower (CENCY, Cyanus segetum); assay: Greenhouse postemergence herbicidal effect; assay type: in vivo
How it was run: as §4

[7] = tested on: wild mustard (SINAR, Sinapis arvensis); assay: Greenhouse postemergence herbicidal effect; assay type: in vivo
How it was run: as §4

[8] = tested on: field chamomile (ANTAR, Anthemis arvensis); assay: Greenhouse postemergence herbicidal effect; assay type: in vivo
How it was run: as §4

[9] = tested on: cleavers (GALAP, Galium aparine); assay: Greenhouse postemergence herbicidal effect; assay type: in vivo
How it was run: as §4

[10] = tested on: wild buckwheat (POLCO, Polygonum convolvulus); assay: Greenhouse postemergence herbicidal effect; assay type: in vivo
How it was run: as §4

[11] = tested on: purple deadnettle (LAMPU, Lamium purpureum); assay: Greenhouse postemergence herbicidal effect; assay type: in vivo
How it was run: as §4

[12] = tested on: field violet (VIOAR, Viola arvensis); assay: Greenhouse postemergence herbicidal effect; assay type: in vivo
How it was run: as §4

[13] = tested on: corn poppy (PAPRH, Papaver rhoeas); assay: Greenhouse postemergence herbicidal effect; assay type: in vivo
How it was run: as §4

winter wheat (TRZAW) = assay: Greenhouse postemergence crop phytotoxicity; assay type: in vivo, Triticum aestivum
Description: as §1, §2, §3

[14] = tested on: turnip (BRSRR, Brassica rapa); assay: Greenhouse postemergence herbicidal effect; assay type: in vivo
How it was run: as §4

[15] = Compound A 10 g/ha (Examples 62-63)
[16] = Compound A 10 g/ha, safener mefenpyr-diethyl

N#CCOC(=O)c1nc(-c2ccc3cc[nH]c3c2F)c(F)c(N)c1Cl [Compound A, cyanomethyl 4-amino-3-chloro-5-fluoro-6-(7-fluoro-1H-indol-6-yl)pyridine-2-carboxylate]
% visual injury (winter barley (HORVW); Compound A 10 g/ha): 0% | % visual injury (winter barley (HORVW); Compound A 15 g/ha): 0% | % visual injury, Obs (spring barley (HORVS); 10 g/ha): 0% | % visual injury (spring barley (HORVS); Compound A 10 g/ha): 0% | % visual injury Obs (spring barley (HORVS); Compound A 10 g/ha): 0% | % visual injury, Obs (spring barley (HORVS); Compound A 10 g/ha): 0% | HORVS % visual injury Obs (spring barley (HORVS); [15]): 0% | % visual injury (spring barley (HORVS); Compound A 15 g/ha): 0% | % visual injury Obs (spring barley (HORVS); Compound A 15 g/ha): 0% | % visual injury, Obs (spring barley (HORVS); HORVS, Compound A 10 g/ha): 0% | Obs % visual injury (spring barley (HORVS); HORVS, Compound A 10 g/ha): 0% | Obs % visual injury (spring barley (HORVS); HORVS, Compound A 10 g/ha (Table 65)): 0% | Obs % visual injury (spring barley (HORVS); HORVS, Compound A 10 g/ha (Table 66)): 0% | Obs % visual injury (spring barley (HORVS); HORVS, Compound A 10 g/ha (Table 67)): 5% | % visual injury, Obs (spring barley (HORVS); HORVS, Compound A 15 g/ha): 0% | Obs % visual injury (spring barley (HORVS); HORVS, Compound A 15 g/ha): 0% | Obs % visual injury (spring barley (HORVS); HORVS, Compound A 15 g/ha (Table 67)): 3% | % visual injury ([1]; Compound A 10 g/ha): 70% | % visual injury ([1]; Compound A 15 g/ha): 80% | % visual injury ([2]; Compound A 10 g/ha): 93% | % visual injury ([2]; Compound A 15 g/ha): 95% | % visual injury ([3]; Compound A 10 g/ha): 93% | % visual injury ([3]; Compound A 15 g/ha): 93% | % visual injury ([4]; Compound A 10 g/ha): 80% | % visual injury ([4]; Compound A 15 g/ha): 80% | % visual injury ([5]; Compound A 10 g/ha): 100% | % visual injury ([5]; Compound A 15 g/ha): 100% | % visual injury ([6]; Compound A 10 g/ha): 93% | % visual injury ([6]; Compound A 15 g/ha): 95% | % visual injury, Obs ([7]; 10 g/ha): 90% and 92% and 88% | % visual injury ([7]; Compound A 10 g/ha): 95% and 90% and 88% and 93% | % visual injury Obs ([7]; Compound A 10 g/ha): 93% and 92% and 88% | % visual injury, Obs ([7]; Compound A 10 g/ha): 100% | SINAR % visual injury Obs [7, 15]: 100% | % visual injury ([7]; Compound A 15 g/ha): 97% and 93% | % visual injury Obs ([7]; Compound A 15 g/ha): 93% | % visual injury, Obs ([7]; SINAR, Compound A 10 g/ha): 93% | Obs % visual injury ([7]; SINAR, Compound A 10 g/ha): 93% and 88% and 100% | Obs % visual injury ([7]; SINAR, Compound A 10 g/ha (Table 65)): 100% | Obs % visual injury ([7]; SINAR, Compound A 10 g/ha (Table 66)): 88% | % visual injury, Obs ([7]; SINAR, Compound A 15 g/ha): 93% | Obs % visual injury ([7]; SINAR, Compound A 15 g/ha): 93% | % visual injury ([8]; Compound A 10 g/ha): 90% | % visual injury ([8]; Compound A 15 g/ha): 95% | % visual injury ([9]; Compound A 10 g/ha): 25% | % visual injury ([9]; Compound A 15 g/ha): 35% | % visual injury, Obs ([10]; 10 g/ha): 70% | % visual injury ([10]; Compound A 10 g/ha): 95% and 93% and 70% and 98% | % visual injury, Obs ([10]; Compound A 10 g/ha): 91% | POLCO % visual injury Obs [10, 15]: 91% | % visual injury, Obs [10, 16]: 100% | POLCO % visual injury Obs [10, 16]: 100% | % visual injury ([10]; Compound A 15 g/ha): 97% and 88% | % visual injury Obs ([10]; Compound A 15 g/ha): 88% | % visual injury, Obs ([10]; POLCO, Compound A 10 g/ha): 98% and 78% | Obs % visual injury ([10]; POLCO, Compound A 10 g/ha (Table 65)): 91% | Obs % visual injury ([10]; POLCO, Compound A 10 g/ha (Table 66)): 70% | Obs % visual injury ([10]; POLCO, Compound A 10 g/ha (Table 67)): 60% | % visual injury, Obs ([10]; POLCO, Compound A 15 g/ha): 88% | Obs % visual injury ([10]; POLCO, Compound A 15 g/ha): 88% | Obs % visual injury ([10]; POLCO, Compound A 15 g/ha (Table 67)): 63% | % visual injury ([11]; Compound A 10 g/ha): 75% | % visual injury ([11]; Compound A 15 g/ha): 75% | % visual injury ([12]; Compound A 10 g/ha): 5% | % visual injury ([12]; Compound A 15 g/ha): 5% | % visual injury ([13]; Compound A 10 g/ha): 100% | % visual injury ([13]; Compound A 15 g/ha): 100% | % visual injury (winter wheat (TRZAW); Compound A 10 g/ha): 0% | % visual injury (winter wheat (TRZAW); Compound A 15 g/ha): 0%

C#CCOC(=O)c1nc(-c2ccc3cc[nH]c3c2F)c(F)c(N)c1Cl [Compound B, propargyl 4-amino-3-chloro-5-fluoro-6-(7-fluoro-1H-indol-6-yl)pyridine-2-carboxylate]
Obs % visual injury (spring barley (HORVS); HORVS, Compound B 10 g/ha): 0% | Obs % visual injury ([14]; Compound B 10 g/ha): 85% | % visual injury, Obs ([10]; 10 g/ha): 90% | Obs % visual injury ([10]; POLCO, Compound B 5 g/ha): 88% | Obs % visual injury ([10]; POLCO, Compound B 10 g/ha): 97% and 87%

COc1ncc(F)c2nc(S(=O)(=O)Nc3c(F)cccc3F)nn12 [Florasulam, florasulam]
% visual injury (winter barley (HORVW); Florasulam 5 g/ha): 0% | % visual injury Obs (spring barley (HORVS); Florasulam 3.75 g/ha): 0% | % visual injury (spring barley (HORVS); Florasulam 5 g/ha): 0% | % visual injury ([1]; Florasulam 5 g/ha): 80% | % visual injury ([2]; Florasulam 5 g/ha): 10% | % visual injury ([3]; Florasulam 5 g/ha): 75% | % visual injury ([4]; Florasulam 5 g/ha): 5% | % visual injury ([5]; Florasulam 5 g/ha): 100% | % visual injury ([6]; Florasulam 5 g/ha): 70% | Obs % visual injury ([14]; Florasulam 5 g/ha): 95% | % visual injury Obs ([7]; Florasulam 3.75 g/ha): 85% | % visual injury ([7]; Florasulam 5 g/ha): 95% | % visual injury ([8]; Florasulam 5 g/ha): 70% | % visual injury ([9]; Florasulam 5 g/ha): 95% | % visual injury Obs ([10]; Florasulam 3.75 g/ha): 90% | % visual injury ([10]; Florasulam 5 g/ha): 87% | % visual injury ([11]; Florasulam 5 g/ha): 10% | % visual injury ([12]; Florasulam 5 g/ha): 10% | % visual injury ([13]; Florasulam 5 g/ha): 97% | % visual injury (winter wheat (TRZAW); Florasulam 5 g/ha): 0%
